Reference: patent EP0061882A1, “Process for preparing isoxazol-3-ylcarboxamides” (ELI LILLY AND COMPANY, priority 1981, dated 1982)

Legend:
Experiment in all cases: broad spectrum greenhouse test, postemergence application
Assay type in all cases: in vivo
Details in all cases: rated about 10-13 days after application, scale 1-5
Pigweed = tested on: Pigweed; parameters: key: 1 = normal plants; 5 = dead plants or no emergence
From the text: (§1) A broad spectrum greenhouse test was run to show the activity of the acyloxadiazoles of formula III.
(§2) Square plastic pots were filled with a sterilized sandy loam soil and were planted to seeds of the various crops and weeds. Each pot was indi- viduall^y fertilized.
(§3) Test compounds of formula III were applied postemergence to some pots and preemergence to others. Postemergence applications of the compounds were sprayed over the emerged plants about 12 days after the seeds were planted. Preemergence applications were sprayed on the soil the day after the seeds were planted.
(§4) Each test compound was dissolved in 1:1 acetone:ethanol at the rate of 2 g. per 100 ml. The solution also contained about 2 g. per 100 ml. of an anionic-nonionic surfactant blend. One ml. of the solution was diluted with deionized water to obtain the dilution desired. The.appropriate amount of the solution was applied to each pot.
(§5) After the compounds were applied, the pots were moved to the greenhouse, watered as necessary, and observed and rated about 10-13 days after application of the compounds. Untreated control plants were used as standards in every test.

Morningglory = tested on: Morningglory; parameters: key: 1 = normal plants; 5 = dead plants or no emergence
From the text: as §1, §2, §3, §4, §5

Foxtail = tested on: Foxtail; parameters: key: 1 = normal plants; 5 = dead plants or no emergence
From the text: as §1, §2, §3, §4, §5

Tomato = tested on: Tomato; parameters: key: 1 = normal plants; 5 = dead plants or no emergence
From the text: as §1, §2, §3, §4, §5

Large Crabgrass = tested on: Large Crabgrass; parameters: key: 1 = normal plants; 5 = dead plants or no emergence
From the text: as §1, §2, §3, §4, §5

Zinnia = tested on: Zinnia; parameters: key: 1 = normal plants; 5 = dead plants or no emergence
From the text: as §1, §2, §3, §4, §5

Mustard = tested on: Mustard; parameters: key: 1 = normal plants; 5 = dead plants or no emergence
From the text: as §1, §2, §3, §4, §5

Velvetleaf = tested on: Velvetleaf; parameters: key: 1 = normal plants; 5 = dead plants or no emergence
From the text: as §1, §2, §3, §4, §5

Barnyard Grass = tested on: Barnyard Grass
From the text: as §1, §2, §3, §4, §5

Wild Oat = tested on: Wild Oat
From the text: as §1, §2, §3, §4, §5

`CN(C)c1nc(CC(=O)C(C)(C)C)no1` [5-dimethylamino-3-(2,2-dimethylpropionyl-methyl)-1,2,4-oxadiazole] was tested, and the “Postemergence rating, Pigweed” value (Pigweed; Rate of Appln. 1 lbs./acre) was 5, the “Postemergence rating, Pigweed” value (Pigweed; Rate of Appln. 2 lbs./acre) was 5 and the “Postemergence rating, Pigweed” value (Pigweed; Rate of Appln. 4 lbs./acre) was 5. The “Postemergence rating, Morningglory” value (Morningglory; Rate of Appln. 1 lbs./acre) was 2, the “Postemergence rating, Morningglory” value (Morningglory; Rate of Appln. 2 lbs./acre) was 5 and the “Postemergence rating, Morningglory” value (Morningglory; Rate of Appln. 4 lbs./acre) was 4. For the same compound, the “Postemergence rating, Foxtail” value (Foxtail; Rate of Appln. 1 lbs./acre) was 4, the “Postemergence rating, Foxtail” value (Foxtail; Rate of Appln. 2 lbs./acre) was 5 and the “Postemergence rating, Foxtail” value (Foxtail; Rate of Appln. 4 lbs./acre) was 5. For the same compound, the “Postemergence rating, Tomato” value (Tomato; Rate of Appln. 1 lbs./acre) was 3, the “Postemergence rating, Tomato” value (Tomato; Rate of Appln. 2 lbs./acre) was 5 and the “Postemergence rating, Tomato” value (Tomato; Rate of Appln. 4 lbs./acre) was 5. The “Postemergence rating, Large Crabgrass” value (Large Crabgrass; Rate of Appln. 1 lbs./acre) was 5, the “Postemergence rating, Large Crabgrass” value (Large Crabgrass; Rate of Appln. 2 lbs./acre) was 5 and the “Postemergence rating, Large Crabgrass” value (Large Crabgrass; Rate of Appln. 4 lbs./acre) was 5. For the same compound, the “Postemergence rating, Zinnia” value (Zinnia; Rate of Appln. 1 lbs./acre) was 5, the “Postemergence rating, Zinnia” value (Zinnia; Rate of Appln. 2 lbs./acre) was 5 and the “Postemergence rating, Zinnia” value (Zinnia; Rate of Appln. 4 lbs./acre) was 5. The “Postemergence rating, Mustard” value (Mustard; Rate of Appln. 1 lbs./acre) was 5, the “Postemergence rating, Mustard” value (Mustard; Rate of Appln. 2 lbs./acre) was 4 and the “Postemergence rating, Mustard” value (Mustard; Rate of Appln. 4 lbs./acre) was 5. For the same compound, the “Postemergence rating, Velvetleaf” value (Velvetleaf; Rate of Appln. 1 lbs./acre) was 5, the “Postemergence rating, Velvetleaf” value (Velvetleaf; Rate of Appln. 2 lbs./acre) was 5 and the “Postemergence rating, Velvetleaf” value (Velvetleaf; Rate of Appln. 4 lbs./acre) was 5. The “Postemergence rating, Barnyard Grass” value (Barnyard Grass; Rate of Appln. 1 lbs./acre) was 4, the “Postemergence rating, Barnyard Grass” value (Barnyard Grass; Rate of Appln. 2 lbs./acre) was 4 and the “Postemergence rating, Barnyard Grass” value (Barnyard Grass; Rate of Appln. 4 lbs./acre) was 4. The “Postemergence rating, Wild Oat” value (Wild Oat; Rate of Appln. 1 lbs./acre) was 2, the “Postemergence rating, Wild Oat” value (Wild Oat; Rate of Appln. 2 lbs./acre) was 3 and the “Postemergence rating, Wild Oat” value (Wild Oat; Rate of Appln. 4 lbs./acre) was 4.
